Values joined by “and” are separate entries in the source; they are usually repeats but may differ in a detail not shown here. Equal values may be shown once.
How the values were obtained:
[1] = tested on: wt-REC-1 mantle cell lymphoma cells; experiment: Cell proliferation assay wt-REC-1 (ATPlite, 72 hours); format: cell-based; details: 72 h; read-out: IC50 wt-REC-1
In short: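 Luminescent viability read over 72 h, start-of-incubation signal recorded separately to separate growth from cell death. Percentage growth referenced to compound-free 0.3% DMSO wells; IC50 from 4-parameter logistic fit.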

REC-1 T474I cell lines = experiment: Cell proliferation assay REC-1 BTK T474I knock-in cells (ATPlite, 72 hours); format: cell-based; details: Homo sapiens, Rec1; 72 hours; read-out: IC50 REC-1 T474I
In short: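 REC-1 cells carrying CRISPR knock-in mutant BTK, single-cell cloned and sequence-confirmed, were exposed to compound for 72 h and read by ATPlite luminescence. Percentage growth was calculated against the signal at the start of incubation and against untreated 0.3% DMSO wells as maximum growth.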

wt-BTK = wt-BTK (Homo sapiens (Human), UniProt Q06187); experiment: Binding kinetics measurements (Surface Plasmon Resonance) on wt-BTK; details: for Kd: binding affinity by Surface Plasmon Resonance (SPR); for Tau (h) wt-BTK (Act): target residence time, SPR; for target residence time on wild-type-BTK: result in words
Chain of wt-BTK (Q06187 whole entry): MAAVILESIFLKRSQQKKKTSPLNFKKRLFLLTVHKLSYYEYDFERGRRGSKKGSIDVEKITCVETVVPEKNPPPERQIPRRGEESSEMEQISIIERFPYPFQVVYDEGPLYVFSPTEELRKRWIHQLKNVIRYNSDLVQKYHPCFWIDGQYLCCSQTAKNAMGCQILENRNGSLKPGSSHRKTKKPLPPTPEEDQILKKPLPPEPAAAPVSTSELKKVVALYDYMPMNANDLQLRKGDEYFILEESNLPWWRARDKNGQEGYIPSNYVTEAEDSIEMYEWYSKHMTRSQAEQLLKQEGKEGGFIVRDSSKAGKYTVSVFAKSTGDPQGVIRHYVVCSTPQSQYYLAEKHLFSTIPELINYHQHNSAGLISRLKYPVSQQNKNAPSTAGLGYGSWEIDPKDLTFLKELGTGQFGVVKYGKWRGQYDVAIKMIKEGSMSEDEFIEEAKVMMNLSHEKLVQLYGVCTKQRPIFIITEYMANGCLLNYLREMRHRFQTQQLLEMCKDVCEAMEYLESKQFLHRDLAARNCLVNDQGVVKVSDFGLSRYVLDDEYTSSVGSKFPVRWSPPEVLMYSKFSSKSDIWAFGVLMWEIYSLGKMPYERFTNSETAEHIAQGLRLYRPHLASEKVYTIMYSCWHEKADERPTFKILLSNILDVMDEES
In short: (§1)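 Protein was immobilized on a streptavidin surface at 4° C, then equilibrated in running buffer containing 1% DMSO at 30 μl/min for at least 30 min. Compounds were injected five times at increasing concentrations (3.16-316 nM) at 22° C. Induced-fit binders were fitted with a two-state reaction model.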

BTK C481S = BTK C481S (Homo sapiens (Human), UniProt Q06187, C481S); experiment: Binding kinetics measurements (Surface Plasmon Resonance) on BTK C481S; details: for Kd: binding affinity by Surface Plasmon Resonance (SPR); for Tau (h) BTK C418S (Act): target residence time for BTK C481S, SPR; for target residence time on BTK C481 mutants: result in words
Chain of BTK C481S (Q06187 whole entry C481S): as the sequence (Q06187 whole entry) above, with C481S counted along it
Method: (§2) Binding kinetics measurements on wt-BTK, BTK […], BTK […], BTK […] and BTK […] (Surface Plasmon Resonance) Streptavidin-coated chips (Cat. No. BR100531), disposables and maintenance kits for Biacore were purchased from Cytiva (Eindhoven, The Netherlands). […] Remaining streptavidin was blocked with biocytin. Immobilization was performed at 4° C. Subsequent assay steps were conducted at 22° C. After changing buffer to Biacore buffer with 1% (v/v) dimethylsulfoxide (DMSO), a pre-run was performed for a period of at least 30 min at a flow rate of 30 μl/min to obtain a stable surface. The kinetic constants of the compounds were determined with single cycle kinetics with five consecutive injections with an increasing compound concentration with ranges of 3.16-316 nM. […] To circumvent problems of mass transport limitation, a flow rate of 30 μl/min was used. A blank run with the same conditions was performed before the compound was injected. The SPR sensorgrams were analyzed with Biacore Evaluation Software by using a method of double referencing. First the reference channel was subtracted from the channel containing immobilized protein. Subsequently, the reference curve obtained with buffer injections was subtracted. […] Compounds that bound according to an induced fit model were fitted with a two-state reaction model. The kinetic constants (ka, […], KD) of duplicates were geometrically averaged. […] Target residence for an induced fit model was calculated as described (Tummino and Copeland, 2008).

BTK T316A = BTK T316A (Homo sapiens (Human), UniProt Q06187, T316A); experiment: Binding kinetics measurements (Surface Plasmon Resonance) on BTK T316A; details: for Kd: binding affinity by Surface Plasmon Resonance (SPR); for Tau (h) BTK T316A (Act): target residence time, SPR; for target residence time on BTK T316 mutants: result in words
Chain of BTK T316A (Q06187 whole entry T316A): as the sequence (Q06187 whole entry) above, with T316A counted along it
Method: as §2

BTK T474I = BTK T474I (Homo sapiens (Human), UniProt Q06187, T474I); experiment: Binding kinetics measurements (Surface Plasmon Resonance) on BTK T474I; details: for Kd: binding affinity by Surface Plasmon Resonance (SPR); for Tau (h) BTK T474I (Act): target residence time, SPR; for target residence time on BTK T474 mutants (T474I): result in words
Chain of BTK T474I (Q06187 whole entry T474I): as the sequence (Q06187 whole entry) above, with T474I counted along it
In short: as §1

BTK T474S = BTK T474S (Homo sapiens (Human), UniProt Q06187, T474S); experiment: Binding kinetics measurements (Surface Plasmon Resonance) on BTK T474S; details: for residence time: SPR binding kinetics, BTK T474S, read-out: Tau (h) BTK T474S (Act), target residence time (converted); for Kd: binding affinity by Surface Plasmon Resonance (SPR); for target residence time on BTK T474 mutants (T474S): result in words
Chain of BTK T474S (Q06187 whole entry T474S): as the sequence (Q06187 whole entry) above, with T474S counted along it
Method: as §2

[2] = tested on: wt-TMD8 diffuse large B-cell lymphoma cells; experiment: Cell proliferation assay wt-TMD8 (ATPlite, 120 hours); format: cell-based; details: B-cell; wt-TMD8 cells, 120 hours, ATPlite; read-out: IC50 wt-TMD8
In short: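 Readout is percentage growth from ATPlite 1Step luminescence after 5 days (120 h) compound treatment of wt-TMD8 lymphoma cells (1600/well, RPMI-1640 + 10% FBS). Time-zero signal separates growth inhibition from cell kill; 0.3% DMSO wells without compound define maximal growth.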

[3] = biological target: full-length wt-BTK enzyme (Homo sapiens (Human), UniProt Q06187); experiment: Biochemical kinase assay wt-BTK (IMAP)
Chain of full-length wt-BTK enzyme (Q06187 whole entry): as the sequence (Q06187 whole entry) above
In short: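 Compound and enzyme (final 1.2 nM) were pre-incubated for 1 h at RT, after which the reaction was started with 4 μM ATP plus 50 nM fluorescein-MBP substrate peptide. After 2 h in the dark, the IMAP progressive binding reagent stopped the reaction, and phosphorylation was read by fluorescence polarization.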

[4] = biological target: full-length BTK C481S enzyme (Homo sapiens (Human), UniProt Q06187, C481S); experiment: Biochemical kinase assay BTK C481S (IMAP)
Chain of full-length BTK C481S enzyme (Q06187 whole entry C481S): as the sequence (Q06187 whole entry) above, with C481S counted along it
In short: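 IC50 values come from IMAP fluorescence polarization after quenching with progressive binding solution. The reaction ran 2 h at room temperature in the dark with 1.2 nM full-length C481S enzyme, 7 μM ATP and 50 nM fluorescein-labelled MBP-derived peptide, following a 1 h dark pre-incubation of compound with enzyme.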

Row | SMILES | IC50 [1] [nM] | IC50 (REC-1 T474I cell lines) [nM] | Kd (wt-BTK) [nM] | Tau (h) wt-BTK (Act) (wt-BTK) [h] | Kd (BTK C481S) [nM] | Tau (h) BTK C418S (Act) (BTK C481S) [h] | Kd (BTK T316A) [nM] | Tau (h) BTK T316A (Act) (BTK T316A) [h] | Kd (BTK T474I) | residence time (BTK T474S) [h] | Kd (BTK T474S) [nM] | IC50 [2] [nM] | IC50 [3] [nM] | IC50 [4] [nM] | Tau (h) BTK T474I (Act) (BTK T474I) [h] | target residence time on wild-type-BTK (wt-BTK) | target residence time on BTK C481 mutants (BTK C481S) | target residence time on BTK T316 mutants (BTK T316A) | target residence time on BTK T474 mutants (T474I) (BTK T474I) | target residence time on BTK T474 mutants (T474S) (BTK T474S)
1 | CC1NC/C=C/c2cnc(N)c3c(-c4ccc(C(=O)Nc5cc(C(F)(F)F)ccn5)cc4)nn(c23)[C@@H]2CCC[C@H](C2)NC1=O (single isomer, unassigned) [Example 146] | < 100 | 100 to 500 | < 5 | 3.88 | < 5 | 5.76 | < 5 | 2.12 | 10 to 50 nM and < 5 nM | 2.69 | < 3 | < 100 |  |  |  |  |  |  |  | 
2 | Nc1ncc2c3c1c(-c1ccc(C(=O)Nc4ccccn4)cc1)nn3[C@@H]1CCC[C@H](C1)NC(=O)CCCCC/C=C/2 [Example 24] |  |  | < 5 |  | < 5 |  | < 5 |  | < 2 nM |  | < 3 |  |  |  |  |  |  |  |  | 
3 | C[C@@H]1CC(=O)N[C@@H]2CCC[C@H](C2)n2nc(-c3ccc(C(=O)Nc4cc(C(F)(F)F)ccn4)cc3)c3c(N)ncc(c32)/C=C/CCN1C [Example 40] | < 100 | < 100 | < 5 | 6.49 |  |  | < 5 | 2.16 | < 2 nM | 8.38 | < 3 | < 100 | < 5 | < 5 | 0.85 |  |  |  |  | 
4 | C[C@@H]1CCn2nc(-c3ccc(C(=O)Nc4cc(C(F)(F)F)ccn4)cc3)c3c(N)ncc(c32)/C=C/CSCC(=O)N1 [Example 61] | < 100 |  | < 5 | 4.95 | < 5 | 7.19 | < 5 | 1.85 | < 2 nM | 2.48 | < 3 | < 100 | < 5 | < 5 |  |  |  |  |  | 
5 | Nc1ncc2c3c1c(-c1ccc(C(=O)Nc4cc(C(F)(F)F)ccn4)cc1)nn3[C@@H]1CCC[C@H](C1)NC(=O)CCCC/C=C\C2 [Example 98b] | 100 to 1000 |  | < 5 | 4.35 | < 5 | 5.98 | < 5 | 3.58 | 10 to 50 nM and < 5 nM | 4.46 | < 3 |  | < 5 | < 5 | 1.14 |  |  |  |  | 
6 | Nc1ncc2c3c1c(-c1ccc(C(=O)Nc4cc(C(F)(F)F)ccn4)cc1)nn3[C@@H]1CCC[C@H](C1)C(=O)NCCCCCCC2 [Example 115] | 100 to 1000 | 100 to 500 | < 5 | 5.09 | < 5 | 6.25 | < 5 | 2.96 | 10 to 50 nM and < 5 nM | 3.89 | < 3 |  | < 5 | < 5 |  |  |  |  |  | 
7 | Nc1ncc2n3c(nc(-c4ccc(C(=O)Nc5cc(C(F)(F)F)ccn5)cc4)c13)[C@@H]1CCC[C@H](C1)NC(=O)CCCC/C=C/2 [Example 130] | < 100 |  | < 5 | 2.86 | < 5 | 3.83 | < 5 | 2.22 | < 2 nM | 1.64 | < 3 | < 100 | < 5 | < 5 |  |  |  |  |  | 
8 | Nc1ncc2n3c(nc(-c4ccc(C(=O)Nc5cc(C(F)(F)F)ccn5)cc4)c13)[C@@H]1CCC[C@H](C1)NC(=O)CCC/C=C/2 [Example 132] | 100 to 1000 | 500 to 10000 | < 5 | 2.75 | < 5 | 3.96 | < 5 | 1.58 | < 2 nM | 3.04 | < 3 |  | < 5 | < 5 |  |  |  |  |  | 
9 | Nc1ncc2n3c(nc(-c4ccc(C(=O)Nc5cc(C(F)(F)F)ccn5)cc4)c13)C1CCC[C@H](C1)NC(=O)CCC/C=C\C2 [Example 133b] | < 100 |  |  | 4.39 |  | 7.08 |  | 1.96 |  | 3.12 |  | < 100 |  |  |  |  |  |  |  | 
10 | Nc1ncc2n3c(nc(-c4ccc(C(=O)Nc5cc(C(F)(F)F)ccn5)cc4)c13)[C@@H]1CCC[C@H](C1)NC(=O)CCC/C=C\C2 [Example 133b] |  |  | < 5 |  | < 5 |  | < 5 |  | < 2 nM |  | < 3 |  | < 5 | < 5 |  |  |  |  |  | 
11 | C[C@@H]1CC(=O)N[C@@H]2CC[C@H](C2)n2nc(-c3ccc(C(=O)Nc4cc(C(F)(F)F)ccn4)cc3)c3c(N)ncc(c32)/C=C/CCN1 [Example 175] | < 100 | 100 to 500 |  |  | < 5 | 4.68 |  | 3.51 |  | 1.14 |  | < 100 | < 5 | < 5 | 1.31 |  |  |  |  | 
12 | C[C@@H]1C[C@@H](C)n2nc(-c3ccc(C(=O)Nc4cc(C(F)(F)F)ccn4)cc3)c3c(N)ncc(c32)/C=C/COCCC(=O)N1 [Example 176] | < 100 | < 100 |  | 3.13 |  |  |  | 5.38 |  | 1.95 |  | < 100 | < 5 | < 5 | 1.94 |  |  |  |  | 
13 | C[C@H]1CN(C2COC2)CCN1c1ccc(Nc2cc(-c3ccnc(N4CCn5c(cc6c5CC(C)(C)C6)C4=O)c3CO)cn(C)c2=O)nc1 [fenebrutinib, reference compound] |  |  |  | 0.29 |  | 0.08 |  | 0.03 |  | 0.93 |  |  |  |  | 0.19 | short target residence times | short target residence times | short target residence times | short target residence times | short target residence times
14 | NC(=O)[C@H]1CCN(c2ncnc(N)c2F)C[C@@H]1N1CCC[C@@H](Nc2cc(Cl)cc(C(F)(F)F)c2)C1=O [vecabrutinib, reference compound] |  |  |  | 0.18 |  | 0.12 |  | 0.05 |  | 0.07 |  |  |  |  | 0.01 | short target residence times | short target residence times | short target residence times | short target residence times | short target residence times
